Assay results from patent US8883789B2, “Piperazine derivatives and their use as positive allosteric modulators of mGluR5 receptors” (Boehringer Ingelheim International GmbH, priority 2011, dated 2014).

Target: T1, human recombinant mGluR5 (Homo sapiens, UniProt P41594)
T1 construct: expressed in transfected cells; hygromycin and geneticin selection
Assay: positive modulation of mGluR5, calcium based FLIPR assay
Conditions: HEK 293 cell line expressing human recombinant mGluR5; Ca2+ peak height after glutamate at approximately 5% basal stimulation; nonlinear regression
How it was run: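 HEK293 cells with tetracycline-free induction, Calcium-4 dye-loaded in Ringer pH 7.4. Compound added 5 min before glutamate at ~5% of maximal effect, 1% DMSO. EC50 from peak Ca2+ fluorescence, normalized to basal glutamate (100%) and 10 μM CDPPB (200%), via nonlinear regression.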

T1 sequence (P41594 21-1212): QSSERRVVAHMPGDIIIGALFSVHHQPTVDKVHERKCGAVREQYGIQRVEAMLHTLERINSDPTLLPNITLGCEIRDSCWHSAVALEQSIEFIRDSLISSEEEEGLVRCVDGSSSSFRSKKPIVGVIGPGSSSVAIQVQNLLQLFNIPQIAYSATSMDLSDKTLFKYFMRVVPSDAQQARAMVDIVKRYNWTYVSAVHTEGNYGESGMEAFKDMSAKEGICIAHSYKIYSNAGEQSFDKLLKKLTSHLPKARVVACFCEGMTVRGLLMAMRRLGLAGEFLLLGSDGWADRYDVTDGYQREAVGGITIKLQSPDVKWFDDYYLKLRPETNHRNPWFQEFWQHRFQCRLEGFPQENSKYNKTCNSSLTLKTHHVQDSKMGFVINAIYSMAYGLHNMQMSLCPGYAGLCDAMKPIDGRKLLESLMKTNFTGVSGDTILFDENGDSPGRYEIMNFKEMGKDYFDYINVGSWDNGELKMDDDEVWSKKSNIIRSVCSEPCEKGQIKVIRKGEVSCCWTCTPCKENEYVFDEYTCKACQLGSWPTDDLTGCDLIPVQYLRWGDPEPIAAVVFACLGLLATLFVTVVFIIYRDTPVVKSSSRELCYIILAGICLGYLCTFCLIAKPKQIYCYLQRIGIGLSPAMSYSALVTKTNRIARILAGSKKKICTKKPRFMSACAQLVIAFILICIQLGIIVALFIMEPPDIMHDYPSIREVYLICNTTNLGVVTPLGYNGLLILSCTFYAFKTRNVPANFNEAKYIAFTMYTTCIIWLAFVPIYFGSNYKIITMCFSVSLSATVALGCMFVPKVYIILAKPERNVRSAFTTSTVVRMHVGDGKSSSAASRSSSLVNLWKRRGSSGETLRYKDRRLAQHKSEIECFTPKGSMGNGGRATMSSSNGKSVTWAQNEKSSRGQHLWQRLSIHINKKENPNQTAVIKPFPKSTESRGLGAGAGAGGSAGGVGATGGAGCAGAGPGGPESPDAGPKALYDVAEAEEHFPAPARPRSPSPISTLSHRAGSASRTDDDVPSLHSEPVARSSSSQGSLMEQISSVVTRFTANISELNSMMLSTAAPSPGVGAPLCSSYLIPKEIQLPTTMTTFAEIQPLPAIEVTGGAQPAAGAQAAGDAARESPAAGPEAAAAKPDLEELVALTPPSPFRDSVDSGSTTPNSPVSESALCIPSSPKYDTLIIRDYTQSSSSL

Row | Compound | EC50 [nM]
1 | COc1ccc2c(OC)nc(C(=O)N3CCN(C(=O)c4ncn(-c5cccc(Cl)c5)n4)C(C)(C)C3)cc2c1 [Example 31] | 160
2 | C[C@@H]1CN(C(=O)c2ncn(-c3cccc(Cl)c3)n2)CCN1C(=O)c1cc(Br)c(Br)o1 [Example 249] | 198
3 | Cc1oc2ccc(Br)cc2c1C(=O)N1CCN(C(=O)c2ncn(-c3cccc(F)c3)n2)C(C)(C)C1 [Example 1, [4-(5-Bromo-2-methyl-benzofuran-3-carbonyl)-2,2-dimethyl-piperazin-1-yl]-[1-(3-fluoro-phenyl)-1H-[1,2,4]triazol-3yl]-methanone] | 39
4 | COc1ccc(C(=O)N2CCN(C(=O)c3ncn(-c4cccc(Cl)c4)n3)C(C)(C)C2)nc1OC [Example 79] | 230
5 | COc1cccc(C(=O)N2CCN(C(=O)c3ncn(-c4ccc(C)c(F)c4)n3)C(C)(C)C2)n1 [Example 159] | 693
6 | CC1CN(C(=O)c2cccc(-c3ccn(C)n3)c2)CCN1C(=O)c1ncn(-c2cccc(Cl)c2)n1 (stereo not shown) [Example 269] | 447
7 | CC1(C)CN(C(=O)c2cccc(Cl)c2)CCN1C(=O)c1ncn(-c2cccc(Cl)c2)n1 [Example 173, [4-(3-Chloro-benzoyl)-2,2-dimethyl-piperazin-1-yl]-[1-(3-chloro-phenyl)-1H-[1,2,4]triazol-3-yl]-methanone] | 19
8 | Cc1oc2ccccc2c1C(=O)N1CCN(C(=O)c2ncn(-c3ccccc3)n2)C(C)C1 (stereo not shown) [Example 295] | 95
9 | COc1cccc(C(=O)N2CCN(C(=O)c3ncn(-c4cccc(C)c4)n3)C[C@H]2C)n1 [Example 251, (R)-(6-Methoxy-pyridin-2-yl)-[2-methyl-4-(1-m-tolyl-1H-[1,2,4]-triazole-3-carbonyl)-piperazin-1-yl]-methanone] | 886
10 | CC1(C)CN(C(=O)c2cccc(C3CCC3)n2)CCN1C(=O)c1ncn(-c2ccccc2)n1 [Example 137] | 69
11 | CC1(C)CN(C(=O)c2cc(Cl)c3c(c2)OCCO3)CCN1C(=O)c1ncn(-c2ccccc2)n1 [Example 104] | 50
12 | CC(C)c1cccc(C(=O)N2CCN(C(=O)c3ncn(-c4cccc(Cl)c4)n3)C(C)(C)C2)c1 [Example 11, [1-(3-Chloro-phenyl)-1H-[1,2,4]-triazol-3-yl]-[4-(3-isopropyl-benzoyl)-2,2-dimethyl-piperazin-1-yl]methanone] | 19
13 | Cc1cccc(-n2cnc(C(=O)N3CCN(C(=O)c4cc(Br)c(Br)o4)CC3(C)C)n2)c1 [Example 8] | 53
14 | CC1(C)CN(C(=O)c2ccc3ccccc3c2)CCN1C(=O)c1ncn(-c2cccc(Cl)c2)n1 [Example 24] | 61
15 | CC1(C)CN(C(=O)c2cnc3[nH]ccc3c2)CCN1C(=O)c1ncn(-c2cccc(Cl)c2)n1 [Example 59] | 1080
16 | Cc1c(C(=O)N2CCN(C(=O)c3ncn(-c4cccc(Cl)c4)n3)C(C)(C)C2)oc2ccc(F)cc12 [Example 41] | 200
17 | Cc1c(C(=O)N2CCN(C(=O)c3ncn(-c4ccccc4)n3)C(C)(C)C2)oc2ccccc12 [Example 134] | 21
18 | CC1(C)CN(C(=O)c2ccc(F)c(Cl)c2)CCN1C(=O)c1ncn(-c2ccccc2)n1 [Example 149] | 353
19 | CC1(C)CN(C(=O)c2cccc(C3CC3)n2)CCN1C(=O)c1ncn(-c2cccc(F)c2)n1 [Example 184] | 33
20 | Cc1cccc(C(=O)N2CCN(C(=O)c3ncn(-c4ccccc4)n3)C(C)(C)C2)c1 [Example 117] | 208
21 | Cc1c(C(=O)N2CCN(C(=O)c3ncn(-c4cccc(Cl)c4)n3)C(C)(C)C2)oc2c(F)cccc12 [Example 53] | 77

Row | Compound | EC50 [nM]
22 | Cc1oc2ccccc2c1C(=O)N1CCN(C(=O)c2ncn(-c3ccccc3)n2)CC1C (stereo not shown) [Example 240] | 350
23 | Cc1cc(-n2cnc(C(=O)N3CCN(C(=O)c4cc(Cl)c5c(c4)OCCO5)CC3(C)C)n2)ccc1F [Example 162] | 475
24 | CC1CN(C(=O)c2cccc(-c3nccs3)c2)CCN1C(=O)c1ncn(-c2cccc(Cl)c2)n1 (stereo not shown) [Example 270] | 677
25 | CC1(C)CN(C(=O)c2cc3ccccc3c(C3CC3)n2)CCN1C(=O)c1nnn(-c2ccccc2)n1 [Example 205] | 42
26 | COc1nc(C(=O)N2CCN(C(=O)c3nnn(-c4cccc(F)c4)n3)C(C)(C)C2)cc2ccccc12 [Example 207, [2-(3-Fluoro-phenyl)-2H-tetrazol-5-yl]-[4-(1-methoxy-isoquinoline-3-carbonyl)-2,2-dimethyl-piperazin-1-yl]-methanone] | 34
27 | CC1(C)CN(C(=O)c2cccc(F)c2)CCN1C(=O)c1ncn(-c2ccccc2)n1 [Example 114] | 233
28 | Cc1cccc(C(=O)N2CCN(C(=O)c3ncn(-c4cccc(Cl)c4)n3)C(C)(C)C2)n1 [Example 39] | 419
29 | CC1CN(C(=O)c2cc3ccccc3o2)CCN1C(=O)c1ncn(-c2cccc(Cl)c2)n1 (stereo not shown) [Example 267] | 558
30 | CC1(C)CN(C(=O)c2cccc(-c3cnco3)c2)CCN1C(=O)c1ncn(-c2ccccc2)n1 [Example 127] | 296
31 | COc1cccc(C(=O)N2CCN(C(=O)c3ncn(-c4ccc(F)c(C)c4)n3)C(C)(C)C2)n1 [Example 161] | 316
32 | CCn1cc(-c2cccc(C(=O)N3CCN(C(=O)c4ncn(-c5cccc(Cl)c5)n4)C(C)(C)C3)n2)cn1 [Example 92] | 119
33 | COCCOc1nc(C(=O)N2CCN(C(=O)c3ncn(-c4cccc(Cl)c4)n3)C(C)(C)C2)cc2ccccc12 [Example 34] | 221
34 | CCCOc1cccc(C(=O)N2CCN(C(=O)c3ncn(-c4cccc(Cl)c4)n3)C(C)C2)c1 (stereo not shown) [Example 285] | 746
35 | CC1(C)CN(C(=O)c2csc(C3CC3)n2)CCN1C(=O)c1ncn(-c2ccccc2)n1 [Example 141] | 487
36 | CC1(C)CN(C(=O)c2cc(Br)c(Br)o2)CCN1C(=O)c1ncn(-c2ccccc2)n1 [Example 105] | 64
37 | CC1(C)CN(C(=O)c2cc(C(F)(F)F)ccn2)CCN1C(=O)c1ncn(-c2cccc(Cl)c2)n1 [Example 89] | 168
38 | Cc1c(C(=O)N2CCN(C(=O)c3ncn(-c4cccc(Cl)c4)n3)C[C@H]2C)oc2ccc(F)cc12 [Example 250] | 371
39 | Cc1nn(C)cc1-c1cccc(C(=O)N2CCN(C(=O)c3ncn(-c4cccc(Cl)c4)n3)C(C)(C)C2)n1 [Example 93] | 242
40 | Cc1c(C(=O)N2CCN(C(=O)c3ncn(-c4ccccc4)n3)C(C)(C)C2)oc2ccc(F)cc12 [Example 108] | 112
41 | CC(C#N)c1cccc(C(=O)N2CCN(C(=O)c3ncn(-c4cccc(Cl)c4)n3)C(C)(C)C2)c1 (stereo not shown) [Example 75] | 419
42 | Cc1c(C(=O)N2CCN(C(=O)c3ncn(-c4cccc(Cl)c4)n3)C(C)(C)C2)oc2c(C)cccc12 [Example 66] | 104

Continued, values first:

Row | EC50 [nM] | Compound
43 | 242 | COc1ccc2oc(C)c(C(=O)N3CCN(C(=O)c4ncn(-c5cccc(F)c5)n4)C(C)C3)c2c1 (stereo not shown) [Example 287]
44 | 109 | CC1(C)CN(C(=O)c2cc3ccccc3c(OCC3CC3)n2)CCN1C(=O)c1ncn(-c2cccc(Cl)c2)n1 [Example 85]
45 | 25 | CC(C)c1cccc(C(=O)N2CCN(C(=O)c3ncn(-c4ccccc4)n3)C(C)(C)C2)c1 [Example 96, [4-(3-Isopropyl-benzoyl)-2,2-dimethyl-piperazin-1-yl]-(1-phenyl-1H-[1,2,4]triazol-3-yl)-methanone]
46 | 113 | COc1nc(C(=O)N2CCN(C(=O)c3ncn(-c4ccccc4)n3)C(C)(C)C2)cc2cc(F)c(F)cc12 [Example 148]
47 | 931 | CCC1(CC)CN(C(=O)c2cccc(Cl)c2)CCN1C(=O)c1ncn(-c2ccccc2)n1 [Example 313]
48 | 43 | CCOc1nc(C(=O)N2CCN(C(=O)c3ncn(-c4ccccc4)n3)C(C)(C)C2)cc2ccccc12 [Example 120]
49 | 373 | COc1cccc(C(=O)N2CCN(C(=O)c3ncn(-c4ccccc4)n3)CC2C)n1 (stereo not shown) [Example 247]
50 | 929 | COc1ccc2c(C)c(C(=O)N3CCN(C(=O)c4ncn(-c5cccc(Cl)c5)n4)C(C)C3)oc2c1 (stereo not shown) [Example 278]
51 | 770 | CC1(C)CN(C(=O)c2ccccc2)CCN1C(=O)c1ncn(-c2ccccc2)n1 [Example 112]
52 | 858 | Cc1c(C(=O)N2CCN(C(=O)c3ncn(-c4cccc(Cl)c4)n3)C(C)C2)oc2c(F)cccc12 (stereo not shown) [Example 284]
53 | 301 | CC1CN(C(=O)c2ncn(-c3cccc(F)c3)n2)CCN1C(=O)c1cc(Cl)c2c(c1)OCCO2 (stereo not shown) [Example 234]
54 | 410 | COCc1cccc(C(=O)N2CCN(C(=O)c3ncn(-c4cccc(Cl)c4)n3)C(C)(C)C2)n1 [Example 38]
55 | 36 | CC1(C)CN(C(=O)c2cccc(C3CC3)n2)CCN1C(=O)c1nnn(-c2cccc(F)c2)n1 [Example 185]
56 | 612 | CC(C)COc1cccc(C(=O)N2CCN(C(=O)c3ncn(-c4cccc(Cl)c4)n3)CC2C)c1 (stereo not shown) [Example 216]
57 | 589 | CC1(C)CN(C(=O)c2ccnc(C(F)(F)F)n2)CCN1C(=O)c1ncn(-c2ccccc2)n1 [Example 143]
58 | 436 | CCn1ccc(C(=O)N2CCN(C(=O)c3ncn(-c4cccc(Cl)c4)n3)C(C)(C)C2)n1 [Example 56]
59 | 15 | CC1(C)CN(C(=O)c2cccc(C(F)(F)F)c2)CCN1C(=O)c1nnn(-c2ccccc2)n1 [Example 166]
60 | 54 | Cc1c(C(=O)N2CCN(C(=O)c3ncn(-c4cccc(Cl)c4)n3)C(C)(C)C2)oc2ccccc12 [Example 45]
61 | 156 | CC1(C)CN(C(=O)c2cccc(Cl)c2)CCN1C(=O)c1nnn(-c2ccccc2F)n1 [Example 196]
62 | 221 | Cc1cc(C(=O)N2CCN(C(=O)c3ncn(-c4cccc(F)c4)n3)C(C)(C)C2)oc1C [Example 174, [4-(4,5-Dimethyl-furan-2-carbonyl)-2,2-dimethyl-piperazin-1-yl]-[1-(3-fluoro-phenyl)-1H-[1,2,4]triazol-3-yl]-methanone]
63 | 314 | CC1(C)CN(C(=O)c2noc(-c3ccccc3)n2)CCN1C(=O)c1ncn(-c2ccccc2)n1 [Example 139]
64 | 487 | Cc1cccc(-n2cnc(C(=O)N3CCN(C(=O)c4cc(Cl)c5c(c4)OCCO5)CC3C)n2)c1 (stereo not shown) [Example 289]
